Assays:
[1] = biological target: porphobilinogen deaminase (PBGD) (Homo sapiens (Human), UniProt P08397); test: Enzymatic assay of porphobilinogen deaminase catalytic activity (Lineweaver-Burk, inhibition constants); assay type: biochemical; details: for Ki: global data fitting of all values in presence of inhibitor, 37° C., pH 8.0, read-out: Ki (inhibition constant of the catalytic activity of the PBGD)
Protocol: Obtaining and purifying the enzyme: The enzyme is obtained and purified by following the method published by Millet O et al. (2009) Biochemistry 48: 454-461.
Enzymatic assay: The assay is based on the method described by Jordan (Shoolingin-Jordan P M et al. (1997). Methods in enzymology 281: 327-336) with some modifications. 10 μL of porphobilinogen deaminase (PBGD) at a concentration of 150 μM in 48 μL of buffer (20 mM Tris-HCl pH 8.0, NaCl 150 mM) is preheated at 37° C. for two minutes. If the assay is performed in the presence of an inhibitor, the latter is added in dissolved form into the buffer. 25 μL of the porphobilinogen (PBG) substrate are then added, diluted to different concentrations (0.15, 0.3, 0.45, 0.6, 0.9, 1.2, 1.5, 1.8, 2.1, 2.4, 2.7, 3, 3.3, 3.9 mM) in the aforementioned buffer and are incubated at 37° C. for five minutes. A control assay containing a buffer without substrate (PBG) in the same proportions is performed at the same time. The enzymatic reaction is stopped by means of freezing the samples in liquid nitrogen. Then the mixture is incubated again with 6 μL of 25 mM uroporphyrinogen 3 synthase (U3S) at 37° C. for 30 minutes to transform the pre-uroporphyrinogen into uroporphyrinogen III. The reaction is again stopped by means of freezing in liquid nitrogen. Then the formed […] uroporphyrinogens are oxidized to uroporphyrins by means of adding 25 μL of I2/KI solution and incubation for 10 minutes in ice and darkness. The iodine excess is then bleached by adding 25 μL of saturated sodium metabisulfite solution. […] Finally, different dilutions of the supernatant in 0.1 M HCl are prepared to measure the change of absorbance at 405 nm with respect to the control sample.
Calculation of inhibition constants: Inhibition constants have been calculated from the global data fitting of all values in presence of inhibitor according to the methodologies disclosed in the prior art (Structure and mechanism in protein Science, Alan Fersht, 1999, Ed. Freeman and Co. (New York), Pag. 105-115).

[2] = biological target: porphobilinogen deaminase of Arabidopsis thaliana (Arabidopsis thaliana (Mouse-ear cress), UniProt Q43316); details: Arabidopsis thaliana enzyme; non-specific chemical modification; cited from earlier work
Sequence of porphobilinogen deaminase of Arabidopsis thaliana (Q43316 63-382): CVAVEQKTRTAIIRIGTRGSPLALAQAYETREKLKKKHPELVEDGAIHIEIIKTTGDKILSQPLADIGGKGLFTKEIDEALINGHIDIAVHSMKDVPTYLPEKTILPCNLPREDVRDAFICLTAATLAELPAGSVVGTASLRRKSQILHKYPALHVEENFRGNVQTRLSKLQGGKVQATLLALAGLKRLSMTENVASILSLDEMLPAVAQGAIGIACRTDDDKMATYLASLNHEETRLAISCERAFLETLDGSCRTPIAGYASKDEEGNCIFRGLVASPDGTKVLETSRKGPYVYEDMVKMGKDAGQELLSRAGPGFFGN

[3] = biological target: Escherichia coli porphobilinogen deaminase (Escherichia coli (strain K12), UniProt P06983); details: Escherichia coli enzyme; cited from earlier work
Sequence of Escherichia coli porphobilinogen deaminase (P06983 whole entry): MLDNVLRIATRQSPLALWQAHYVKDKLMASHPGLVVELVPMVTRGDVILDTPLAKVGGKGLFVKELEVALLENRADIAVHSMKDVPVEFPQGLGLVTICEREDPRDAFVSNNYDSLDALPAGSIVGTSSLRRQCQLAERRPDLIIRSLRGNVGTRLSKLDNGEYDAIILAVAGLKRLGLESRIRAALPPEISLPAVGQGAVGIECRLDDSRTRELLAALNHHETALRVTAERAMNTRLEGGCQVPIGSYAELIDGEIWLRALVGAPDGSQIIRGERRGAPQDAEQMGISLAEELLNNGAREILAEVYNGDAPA

Sequence of porphobilinogen deaminase (PBGD) (P08397 whole entry): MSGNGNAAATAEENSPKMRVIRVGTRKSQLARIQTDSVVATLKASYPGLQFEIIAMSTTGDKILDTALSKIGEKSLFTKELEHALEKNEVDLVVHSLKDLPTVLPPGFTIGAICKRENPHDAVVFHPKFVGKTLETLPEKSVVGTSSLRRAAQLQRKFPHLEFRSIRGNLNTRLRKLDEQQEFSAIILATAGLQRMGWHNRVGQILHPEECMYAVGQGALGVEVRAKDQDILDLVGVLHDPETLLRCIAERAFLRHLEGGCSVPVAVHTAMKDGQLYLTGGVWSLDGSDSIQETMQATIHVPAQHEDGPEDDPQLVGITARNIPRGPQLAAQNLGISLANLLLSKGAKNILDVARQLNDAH

Compound	Ki [1]	effect on catalytic activity of porphobilinogen deaminase [2]	also measured
Cc1c[nH]c(C)c1 [2,4-CH3-PYR, 2,4-dimethyl-1H-pyrrole]	6 µM	–	–
Cc1ccc(C)[nH]1 [2,5-CH3-PYR, 2,5-dimethyl-1H-pyrrole]	3 µM	–	–
OCCS [2-mercaptoethanol]	–	significantly alter the catalytic activity	–
N[C@H](Cc1c[nH]c2ccccc12)C(=O)O [DTRP, 2R-amino-3-(1H-indol-3-yl) propanoic acid]	–	–	type of inhibition of the catalytic activity of PBGD (Lineweaver-Burk plot) ([1]; increasing amounts of inhibitor, change in slope with same intercept): competitive inhibition
CCN1C(=O)C=CC1=O [N-ethylmaleimide]	–	low inhibition	effect on catalytic activity of porphobilinogen deaminase [3]: strongly deactivates
